The test system of data set [1] is MCF7. The experiment in a line: cells. The following applies: Homo sapiens.
For another data set, the system named is T47D. Put plainly: cells. Particulars: Homo sapiens.
The subject of data set [2] is COLO 205. The experiment in a line: cells. Particulars: Homo sapiens.
For the next data set, the system named is A549. The experiment in a line: cells. The following applies: Homo sapiens.
The subject of the next data set is ZR-75-1. The experiment in a line: cells. Particulars: Homo sapiens.
The test system of data set [3] is MCF7. It counts as functional, Homo sapiens. Particulars: at 50 mg/kg.
Data set [4] concerns COLO 205. The following applies: Homo sapiens.
Another data set deals with U-87 MG. The experiment in a line: cells. Particulars: Homo sapiens.
The next data set deals with U-251. Put plainly: cells. The following applies: Homo sapiens.
For a further data set, the system named is HepG2. The experiment in a line: cells. The following applies: Homo sapiens.
Another data set deals with SNU-5. The experiment in a line: cells. Particulars: Homo sapiens.
For the next data set, the system named is NCI-N87. The experiment in a line: cells. Particulars: Homo sapiens.
The subject of the next data set is NCI-H1975. Put plainly: cells. Particulars: Homo sapiens.
The next data set has as its system NCI-H1993. The experiment in a line: cells. The following applies: Homo sapiens.
The next data set deals with CFPAC-1. Put plainly: cells. The following applies: Homo sapiens.
In a further data set the test system is PANC-1. The experiment in a line: cells. The following applies: Homo sapiens.
In another data set the test system is BXPC-3. Put plainly: cells. The following applies: Homo sapiens.
The test system of a further data set is LNCaP. Put plainly: cells. The following applies: Homo sapiens.
The subject of a further data set is PC-3. The experiment in a line: cells. The following applies: Homo sapiens.
A short description of data set [5]: in vivo. Particulars: BALB/c, mouse, iv, 3 mg/kg.
Data set [6] in a line: in vivo. Particulars: BALB/c, mouse, iv, 3 mg/kg. This is another data set of the same source.
The nature of data set [7]: in vivo. The following applies: BALB/c, mouse, iv, 3 mg/kg. The source holds these as a separate data set.
Data set [8] can be described thus: in vivo. The following applies: BALB/c, mouse, iv, 3 mg/kg. This is another data set of the same source.
Data set [9] in a line: in vivo. The following applies: BALB/c, mouse, iv, 3 mg/kg. This is another data set of the same source.
The nature of data set [10]: in vivo. Particulars: BALB/c, mouse, po, 10 mg/kg.
The nature of data set [11]: in vivo. Particulars: BALB/c, mouse, po, 10 mg/kg. The source holds these as a separate data set.
Data set [12] is described as follows: in vivo. The following applies: BALB/c, mouse, po, 10 mg/kg. This is another data set of the same source.
Data set [13] can be described thus: in vivo. Particulars: BALB/c, mouse, po, 10 mg/kg. The source holds these as a separate data set.
Data set [14] in a line: in vitro. Particulars: human, microsomes.
The nature of data set [15]: in vitro. Particulars: mouse, microsomes.
Data set [16] in a line: in vitro. The following applies: rat, microsomes.
A short description of data set [17]: in vitro. The following applies: dog, microsomes.
Data set [18] in a line: in vitro. The following applies: rhesus monkey, microsomes.
A short description of data set [19]: in vitro. Particulars: human, microsomes. The source holds these as a separate data set.
Data set [20] in a line: in vitro. Particulars: mouse, microsomes. The source holds these as a separate data set.
A short description of data set [21]: in vitro. The following applies: rat, microsomes. The source holds these as a separate data set.
The nature of data set [22]: in vitro. Particulars: dog, microsomes. The source holds these as a separate data set.
A short description of data set [23]: in vitro. The following applies: rhesus monkey, microsomes. This is another data set of the same source.

The source made the active and inactive calls. The calls are words filed in the database; no cut-off is given here.

By IC50 is commonly meant the concentration at which inhibition is half-maximal. Lower therefore signals inhibition by little substance. Broadly, the T/C is the ratio of treated to control. Broadly, the Cmax is the maximum level reached in the sampled fluid or tissue. In general, AUC(0-t) refers to exposure summed from dosing to a finite time, without extrapolation to infinity. A low value points to less exposure. As a reminder, the half-life is the time in which the quantity being followed falls by half. As usually defined, the Vd is a proportionality between amount in the body and measured concentration, not a real space. A high value points to extensive tissue distribution. One may read the clearance as a measure of how efficiently the substance is removed, as volume per time. Higher therefore signals efficient removal. As usually defined, the bioavailability is dose-corrected exposure relative to a reference, in per cent. Lower therefore signals poor availability. Usually microsomal CLint stands for the rate of metabolic loss divided by the concentration.

For the compound `Cc1nc2c(F)cc(-c3nc(Nc4ccc5c(n4)CCN(CCN(C)P(C)(C)=O)C5)ncc3F)cc2n1C(C)C`, the half-inhibitory concentration (IC50) in the data set with MCF7 [1] came out at 551 nM; in the data set with T47D it was 29 nM; in the data set on COLO 205 [2], 387 nM; with A549 it was 934 nM.
For `CCOP(=O)(OCC)N(C)CCN1CCc2nc(Nc3ncc(F)c(-c4cc(F)c5nc(C)n(C(C)C)c5c4)n3)ccc2C1`, the concentration for half-maximal inhibition (IC50) in the data set on MCF7 [1] was determined as 150 nM; in the data set with ZR-75-1, 453 nM; with COLO 205 [2], 911 nM; in the data set with A549, 1060 nM.
As to `C/C(=N\O)N(C)CCN1CCc2nc(Nc3ncc(F)c(-c4cc(F)c5nc(C)n(C(C)C)c5c4)n3)ccc2C1`, the IC50 came to 193 nM with MCF7 [1]; 62.5 nM with T47D; 121 nM in the data set with ZR-75-1; 125 nM in the data set with COLO 205 [2]; 423 nM in the data set on A549.
For `CCN1CCN(Cc2ccc(Nc3ncc(F)c(-c4cc(F)c5nc(C)n(C(C)C)c5c4)n3)nc2)CC1` [ABEMACICLIB], in the data set on MCF7 [3], the T/C was found to be 37%. Further, the TGI result in the data set with COLO 205 [4] was “Active”. For the same compound, the half-maximal inhibitory concentration (IC50) in the data set with U-87 MG was determined as 706 nM; in the data set on U-251, 294 nM; in the data set with HepG2, 216 nM; in the data set on SNU-5, 523 nM; in the data set with NCI-N87, 519 nM; in the data set with NCI-H1975 it was 774 nM. Moreover, the 50% inhibitory concentration (IC50) with NCI-H1993 is 1160 nM; in the data set with CFPAC-1, 371 nM; in the data set with PANC-1 it was 701 nM; in the data set with BXPC-3 it was 127 nM; in the data set with LNCaP, 84 nM; in the data set with PC-3 it was 9210 nM. Further, the Cmax at 24 h in “in vivo [5]” amounted to 765 ng/mL; in “in vivo [10]” it was 577 ng/mL. For the same compound, the AUC(0-t) at 24 h in the data set “in vivo [6]” amounted to 830 ng·h/mL; in the data set “in vivo [11]”, 2170 ng·h/mL. Further, the results for the half-life at 24 h in the data set “in vivo [7]” and in the data set “in vivo [12]” were 325 min and 283 min, respectively. In addition, the volume of distribution (Vd) at 24 h in “in vivo [8]” turned out to be 8.24 L/kg. Also, in “in vivo [9]”, the clearance at 24 h is 60 mL/min/kg. Also, the bioavailability at 24 h in the data set “in vivo [13]” was 78.6%. Further, the half-life at 1 h is 8.15 min in the data set “in vitro [14]”; 8.25 min in the data set “in vitro [15]”; 231 min in “in vitro [16]”; 17.8 min in “in vitro [17]”; 3.96 min in “in vitro [18]”. The intrinsic metabolic clearance (microsomal CLint) at 1 h in “in vitro [19]” came out at 170 µL/min/mg; in the data set “in vitro [20]”, 168 µL/min/mg; in the data set “in vitro [21]” it was 6 µL/min/mg; in “in vitro [22]”, 78 µL/min/mg; in the data set “in vitro [23]” it was 350 µL/min/mg.

Source of the values: ChEMBL document CHEMBL4304763 (Eur J Med Chem, 2019).
